3 molecules from patent US9347934B2, “Assays for identifying compounds that modulate bitter taste” (CHROMOCELL CORPORATION, priority 2011, dated 2016) can be followed below.

What all share (format): cell-based
One test deals with T1, TAS2R3 (Homo sapiens, UniProt Q9NYW6).
T1 construct: expressed in transfected cells
T1 sequence (Q9NYW6 1-316): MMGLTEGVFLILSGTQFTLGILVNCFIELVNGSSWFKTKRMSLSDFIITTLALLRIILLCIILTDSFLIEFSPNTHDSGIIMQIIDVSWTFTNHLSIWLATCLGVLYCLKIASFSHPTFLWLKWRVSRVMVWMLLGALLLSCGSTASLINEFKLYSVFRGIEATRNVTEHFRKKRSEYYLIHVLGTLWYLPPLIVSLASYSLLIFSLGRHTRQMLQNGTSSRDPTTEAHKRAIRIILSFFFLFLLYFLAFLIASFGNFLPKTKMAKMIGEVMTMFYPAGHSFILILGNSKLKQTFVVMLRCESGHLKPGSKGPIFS
The test can be described thus: Calcium fluorescence functional assay, TAS2R3 cell line. As to conditions: 20 mM tastant; cell line expressing human TAS2R3 and mouse Gα15. Here is the method: (§1) Accordingly, each cell line of the panel expressed a human bitter taste receptor and mouse Gα15 signaling protein.
(§2) Probenecid was not included in the load solution.
(§3) After dye loading, cell plates were placed in a fluorescent plate reader (e.g., FDSS6000 (Hamamatsu, Japan)) and receptor stimulation was measured by adding 50 ul of 3× concentrated ligand/agonist stock. Fluorescence was monitored continuously for 10 s before agonist addition and for 100-250 s after stimulation with agonist.
(§4) Receptor Activation is defined as follows: % Activation=[((Maximum signal fluorescence−Minimum signal fluorescence)−(Maximum control fluorescence−Minimum control fluorescence))/(Maximum buffer fluorescence−Minimum buffer fluorescence)]*100 Functional Response=[(Maximum signal fluorescence−Minimum signal fluorescence)−(Maximum control fluorescence−Minimum control fluorescence)] • Signal Fluorescence: refers to the change in fluorescence seen with addition of ligand • Control fluorescence: refers to the change in fluorescence seen with addition of buffer (negative control) • Calcium signals from ligand and control were normalized to the basal fluorescence of the cells prior to the stimulation.
(§5) A concentration analysis was performed and EC50 values were calculated by nonlinear regression using the formula: Y=Bottom+(Top-Bottom)/(1+10^((Log EC50-X)*Hill Slope)), X=log of dose or concentration, Y=Response (increasing as X increases), Top=maximum signal, Bottom=minimum signal.

The next test concerns the target T2, TAS2R14 (Homo sapiens, UniProt Q9NYV8).
T2 construct: expressed in transfected cells
T2 sequence (Q9NYV8 1-317): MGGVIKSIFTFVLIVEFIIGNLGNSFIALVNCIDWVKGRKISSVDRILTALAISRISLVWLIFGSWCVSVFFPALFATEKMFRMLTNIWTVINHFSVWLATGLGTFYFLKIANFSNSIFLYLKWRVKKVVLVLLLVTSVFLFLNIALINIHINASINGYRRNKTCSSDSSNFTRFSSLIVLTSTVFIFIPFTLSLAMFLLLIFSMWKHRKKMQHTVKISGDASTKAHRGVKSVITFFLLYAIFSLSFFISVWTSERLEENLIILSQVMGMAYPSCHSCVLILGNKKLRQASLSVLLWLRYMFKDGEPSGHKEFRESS
The test can be described thus: Calcium fluorescence functional assay, TAS2R14 cell line. Particulars: for TAS2R14 bitter taste receptor activity (changes in intracellular calcium): 20 mM tastant, cell line expressing human TAS2R14 and mouse Gα15. Here is the method: as §1, §2, §3, §4, §5
(A change in cytosolic calcium serves as a functional read-out for many receptors and channels.)

A further test has as its target T3, TAS2R16 (Homo sapiens, UniProt Q9NYV7).
T3 construct: expressed in transfected cells
T3 sequence (Q9NYV7 1-291): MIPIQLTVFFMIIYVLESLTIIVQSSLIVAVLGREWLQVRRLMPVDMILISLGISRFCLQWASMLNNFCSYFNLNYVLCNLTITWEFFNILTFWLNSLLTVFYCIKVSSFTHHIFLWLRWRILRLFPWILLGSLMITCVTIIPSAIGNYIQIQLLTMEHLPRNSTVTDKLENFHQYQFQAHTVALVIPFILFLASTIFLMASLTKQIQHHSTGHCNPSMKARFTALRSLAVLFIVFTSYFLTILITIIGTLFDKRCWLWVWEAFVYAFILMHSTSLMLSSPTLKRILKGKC
The test can be described thus: Calcium fluorescence functional assay, TAS2R16 cell line. As to conditions: 20 mM tastant; cell line expressing human TAS2R16 and mouse Gα15. As for the experimental part:
as §1, §2, §3, §4, §5

Another test has as its target T4, TAS2R40 (Homo sapiens, UniProt P59535).
T4 construct: expressed in transfected cells
The test can be described thus: Calcium fluorescence functional assay, TAS2R40 cell line. Particulars: 20 mM tastant; cell line expressing human TAS2R40 and mouse Gα15. As for the experimental part:
as §1, §2, §3, §4, §5

The next test addresses T5, TAS2R41 (Homo sapiens, UniProt P59536).
T5 construct: expressed in transfected cells
T5 sequence (P59536 1-307): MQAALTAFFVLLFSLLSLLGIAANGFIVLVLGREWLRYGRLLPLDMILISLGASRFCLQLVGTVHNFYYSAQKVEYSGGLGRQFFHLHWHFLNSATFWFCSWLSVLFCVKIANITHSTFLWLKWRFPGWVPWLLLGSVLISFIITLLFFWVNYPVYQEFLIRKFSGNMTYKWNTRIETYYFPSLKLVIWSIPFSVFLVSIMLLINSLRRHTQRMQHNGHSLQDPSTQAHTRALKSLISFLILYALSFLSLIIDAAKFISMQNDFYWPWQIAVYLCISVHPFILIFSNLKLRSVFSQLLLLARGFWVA
The test can be described thus: Calcium fluorescence functional assay, TAS2R41 cell line. Particulars: 20 mM tastant; cell line expressing human TAS2R41 and mouse Gα15. Here is the method: as §1, §2, §3, §4, §5

The target in the next test is T6, TAS2R46 (Homo sapiens, UniProt P59540).
T6 construct: expressed in transfected cells
T6 sequence (P59540 1-309): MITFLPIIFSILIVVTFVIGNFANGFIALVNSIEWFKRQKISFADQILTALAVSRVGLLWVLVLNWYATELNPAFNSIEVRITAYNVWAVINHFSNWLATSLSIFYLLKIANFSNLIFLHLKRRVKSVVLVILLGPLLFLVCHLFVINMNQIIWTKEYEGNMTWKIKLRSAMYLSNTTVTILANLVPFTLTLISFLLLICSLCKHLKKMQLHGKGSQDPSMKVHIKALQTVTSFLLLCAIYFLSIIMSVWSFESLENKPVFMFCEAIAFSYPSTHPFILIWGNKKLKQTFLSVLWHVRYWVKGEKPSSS
The test can be described thus: Calcium fluorescence functional assay, TAS2R46 cell line. As to conditions: 20 mM tastant; cell line expressing human TAS2R46 and mouse Gα15. Here is the method:
as §1, §2, §3, §4, §5

A further test has as its target T7, TAS2R47 (Homo sapiens, UniProt P59541).
T7 construct: expressed in transfected cells
T7 sequence (P59541 1-319): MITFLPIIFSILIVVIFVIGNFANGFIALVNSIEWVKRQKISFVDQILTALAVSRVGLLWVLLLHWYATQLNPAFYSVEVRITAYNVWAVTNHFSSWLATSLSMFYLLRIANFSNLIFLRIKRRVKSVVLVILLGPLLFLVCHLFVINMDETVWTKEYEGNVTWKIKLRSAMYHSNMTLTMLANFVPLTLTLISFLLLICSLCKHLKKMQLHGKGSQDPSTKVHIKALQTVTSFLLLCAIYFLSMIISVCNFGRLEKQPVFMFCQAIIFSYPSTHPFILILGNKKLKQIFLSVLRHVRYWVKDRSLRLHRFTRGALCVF
The test can be described thus: Calcium fluorescence functional assay, TAS2R47 cell line. As to conditions: 20 mM tastant; cell line expressing human TAS2R47 and mouse Gα15. Here is the method: as §1, §2, §3, §4, §5

T4 sequence (P59535 whole entry): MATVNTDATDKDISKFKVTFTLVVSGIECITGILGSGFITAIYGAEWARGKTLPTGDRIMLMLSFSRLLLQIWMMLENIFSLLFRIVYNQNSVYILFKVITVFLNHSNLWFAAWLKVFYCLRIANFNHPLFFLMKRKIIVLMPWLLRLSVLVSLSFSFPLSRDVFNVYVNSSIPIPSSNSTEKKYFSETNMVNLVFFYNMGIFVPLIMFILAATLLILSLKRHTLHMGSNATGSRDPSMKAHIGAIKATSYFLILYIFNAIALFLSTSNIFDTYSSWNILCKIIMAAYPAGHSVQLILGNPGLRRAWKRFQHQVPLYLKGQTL

Turning to `CC1=CC(=O)NS(=O)(=O)O1` [Acesulfame K], the “TAS2R3 bitter taste receptor activity (changes in intracellular calcium)” value at TAS2R3 is on record as “did not induce”. Moreover, at TAS2R14, the “TAS2R14 bitter taste receptor activity (changes in intracellular calcium)” value is given as “induced”. Also, the “TAS2R16 bitter taste receptor activity (changes in intracellular calcium)” value on TAS2R16 is “induced”. Also, the “TAS2R40 bitter taste receptor activity (changes in intracellular calcium)” value at TAS2R40 is given as “did not induce”. Further, the “TAS2R41 bitter taste receptor activity (changes in intracellular calcium)” value at TAS2R41 is “did not induce”. The “TAS2R46 bitter taste receptor activity (changes in intracellular calcium)” value at TAS2R46 is listed as “did not induce”. Also, on TAS2R47, the “TAS2R47 bitter taste receptor activity (changes in intracellular calcium)” value is “did not induce”.

Take `[Cl-].[K+]` [KCl, potassium chloride]: the “TAS2R3 bitter taste receptor activity (changes in intracellular calcium)” value at TAS2R3 is listed as “did not induce”. The “TAS2R14 bitter taste receptor activity (changes in intracellular calcium)” value at TAS2R14 is on record as “induced”. The 50% effective concentration (EC50) (as a rule, the concentration giving half of the maximal effect) at TAS2R14 (increasing concentrations of KCl, TAS2R14 cell line (FIG. 3), read-out: EC50 value, activation of TAS2R14) fell in the range of 5 to 15 mM. The “TAS2R16 bitter taste receptor activity (changes in intracellular calcium)” value on TAS2R16 is listed as “did not induce”. In addition, the “TAS2R40 bitter taste receptor activity (changes in intracellular calcium)” value at TAS2R40 is “did not induce”. Also, on TAS2R41, the “TAS2R41 bitter taste receptor activity (changes in intracellular calcium)” value was “did not induce”. Besides, the “TAS2R46 bitter taste receptor activity (changes in intracellular calcium)” value at TAS2R46 is “did not induce”. Besides, on TAS2R47, the “TAS2R47 bitter taste receptor activity (changes in intracellular calcium)” value is “did not induce”.

As to `CC(O)C(=O)[O-].[K+]` (stereo not shown) [Potassium lactate, potassium lactate], on TAS2R3, the “TAS2R3 bitter taste receptor activity (changes in intracellular calcium)” value is “did not induce”. The “TAS2R14 bitter taste receptor activity (changes in intracellular calcium)” value at TAS2R14 is “induced”. Further, the “TAS2R16 bitter taste receptor activity (changes in intracellular calcium)” value at TAS2R16 was “did not induce”. Moreover, the “TAS2R40 bitter taste receptor activity (changes in intracellular calcium)” value at TAS2R40 was “did not induce”. In addition, the “TAS2R41 bitter taste receptor activity (changes in intracellular calcium)” value at TAS2R41 is on record as “did not induce”. Moreover, the “TAS2R46 bitter taste receptor activity (changes in intracellular calcium)” value on TAS2R46 is “induced”. Besides, the “TAS2R47 bitter taste receptor activity (changes in intracellular calcium)” value on TAS2R47 is listed as “did not induce”.
